Holding throughout (format): in vivo
Assay [1] relates to Yellow nutsedge. Description: Pre-emergence herbicide test. The note with it: Cyperus, read-out: % plant inhibition (Yens); for inhibition at 1120 g/ha: 1.12 kg/ha; for inhibition at 11210 g/ha: 11.21 kg/ha. An outline of the steps: (§1)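 Sow seeds on compacted topsoil; apply compound in acetone/water to seed bed; cover with untreated topsoil; grow in greenhouse with bottom watering; score % inhibition at 10-14 days.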

Assay [2] relates to Downy Brome. Description: Pre-emergence herbicide test. The note with it: Bromus tectorum, read-out: % plant inhibition (Dobr); for inhibition at 1120 g/ha: 1.12 kg/ha; for inhibition at 11210 g/ha: 11.21 kg/ha. In a few lines:
as §1

In assay [3] the test system is Barnyardgrass. Description: Pre-emergence herbicide test. The note with it: Echinochloa crus-galli, read-out: % plant inhibition (Bygr); for inhibition at 1120 g/ha: 1.12 kg/ha; for inhibition at 11210 g/ha: 11.21 kg/ha. In a few lines: as §1
The test system of assay [4] is Annual bluegrass. Briefly: Pre-emergence herbicide test. The following applies: read-out: % plant inhibition (Anbg); for inhibition at 1120 g/ha: 1.12 kg/ha; for inhibition at 11210 g/ha: 11.21 kg/ha. An outline of the steps:
as §1

Assay [5] has as its system Cocklebur. Briefly: Pre-emergence herbicide test. The following applies: Xanthium strumarium, read-out: % plant inhibition (Cobu); for inhibition at 1120 g/ha: 1.12 kg/ha; for inhibition at 11210 g/ha: 11.21 kg/ha. An outline of the steps: as §1
The subject of assay [6] is Seedling johnsongrass. Briefly: Pre-emergence herbicide test. The note with it: Sorghum halepense, read-out: % plant inhibition (Sejg); for inhibition at 1120 g/ha: 1.12 kg/ha; for inhibition at 11210 g/ha: 11.21 kg/ha. In a few lines:
as §1

The subject of assay [7] is Indian Mustard. Briefly: Pre-emergence herbicide test. The following applies: Brassica juncea, read-out: % plant inhibition (Inmu); for inhibition at 1120 g/ha: 1.12 kg/ha; for inhibition at 11210 g/ha: 11.21 kg/ha. An outline of the steps: as §1
The subject of assay [8] is Wild buckwheat. Description: Pre-emergence herbicide test. The following applies: Fallopia convolvulus, read-out: % plant inhibition (Wibw); for inhibition at 1120 g/ha: 1.12 kg/ha; for inhibition at 11210 g/ha: 11.21 kg/ha. In a few lines: as §1
Assay [9] relates to Morningglory. Briefly: Pre-emergence herbicide test. The following applies: Ipomoea, read-out: % plant inhibition (Mogl); for inhibition at 1120 g/ha: 1.12 kg/ha; for inhibition at 11210 g/ha: 11.21 kg/ha. In a few lines:
as §1

Assay [10] has as its system Velvetleaf. Briefly: Pre-emergence herbicide test. The note with it: Abutilon theophrasti, read-out: % plant inhibition (Vele); for inhibition at 1120 g/ha: 1.12 kg/ha; for inhibition at 11210 g/ha: 11.21 kg/ha. An outline of the steps: as §1
Assay [11] relates to Yellow nutsedge. Briefly: Post-emergence herbicide test. The note with it: Cyperus, read-out: % plant inhibition (Yens); for inhibition at 1120 g/ha: 1.12 kg/ha; for inhibition at 11210 g/ha: 11.21 kg/ha. In a few lines:
(§2)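 Emerged annual and perennial plants (2–3 weeks) are sprayed with test compound in a carrier with ~0.4% emulsifier, 1870 L/Ha total volume, atomizer pressure 10 psig. Effects are expressed as % inhibition versus control at approximately 10–14 days and occasionally 24–28 days.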

In assay [12] the test system is Downy Brome. Briefly: Post-emergence herbicide test. The following applies: Bromus tectorum, read-out: % plant inhibition (Dobr); for inhibition at 1120 g/ha: 1.12 kg/ha; for inhibition at 11210 g/ha: 11.21 kg/ha. An outline of the steps: as §2
Assay [13] deals with Barnyardgrass. Description: Post-emergence herbicide test. The following applies: Echinochloa crus-galli, read-out: % plant inhibition (Bygr); for inhibition at 1120 g/ha: 1.12 kg/ha; for inhibition at 11210 g/ha: 11.21 kg/ha. An outline of the steps: as §2
The test system of assay [14] is Annual bluegrass. Briefly: Post-emergence herbicide test. The note with it: read-out: % plant inhibition (Anbg); for inhibition at 1120 g/ha: 1.12 kg/ha; for inhibition at 11210 g/ha: 11.21 kg/ha. An outline of the steps:
as §2

Assay [15] deals with Cocklebur. Briefly: Post-emergence herbicide test. The following applies: Xanthium strumarium, read-out: % plant inhibition (Cobu); for inhibition at 1120 g/ha: 1.12 kg/ha; for inhibition at 11210 g/ha: 11.21 kg/ha. An outline of the steps:
as §2

The subject of assay [16] is Seedling johnsongrass. Description: Post-emergence herbicide test. The following applies: Sorghum halepense, read-out: % plant inhibition (Sejg); for inhibition at 1120 g/ha: 1.12 kg/ha; for inhibition at 11210 g/ha: 11.21 kg/ha. An outline of the steps:
as §2

For assay [17], the system named is Indian Mustard. Briefly: Post-emergence herbicide test. The following applies: Brassica juncea, read-out: % plant inhibition (Inmu); for inhibition at 1120 g/ha: 1.12 kg/ha; for inhibition at 11210 g/ha: 11.21 kg/ha. An outline of the steps: as §2
For assay [18], the system named is Wild buckwheat. Briefly: Post-emergence herbicide test. The note with it: Fallopia convolvulus, read-out: % plant inhibition (Wibw); for inhibition at 1120 g/ha: 1.12 kg/ha; for inhibition at 11210 g/ha: 11.21 kg/ha. An outline of the steps: as §2
Assay [19] concerns Morningglory. Briefly: Post-emergence herbicide test. The note with it: Ipomoea, read-out: % plant inhibition (Mogl); for inhibition at 1120 g/ha: 1.12 kg/ha; for inhibition at 11210 g/ha: 11.21 kg/ha. In a few lines:
as §2

In assay [20] the test system is Velvetleaf. Briefly: Post-emergence herbicide test. The following applies: Abutilon theophrasti, read-out: % plant inhibition (Vele); for inhibition at 1120 g/ha: 1.12 kg/ha; for inhibition at 11210 g/ha: 11.21 kg/ha. An outline of the steps:
as §2

One may read the inhibition as the share of the control response that was lost under treatment. Regarding `Cn1nc(-c2cc([N+](=O)[O-])c(Cl)cc2F)c(Cl)c1C(F)F` [Compound 198], the inhibition at 1120 g/ha in the assay with Yellow nutsedge [1], in the assay with Downy Brome [2], in the assay on Barnyardgrass [3], with Annual bluegrass [4], with Cocklebur [5] and in the assay on Seedling johnsongrass [6] was 0% throughout. Further, the inhibition at 1120 g/ha with Indian Mustard [7] amounted to 20%; in the assay on Wild buckwheat [8], 70%; in the assay with Morningglory [9], 0%; with Velvetleaf [10], 80%; with Yellow nutsedge [11] it was 0%; in the assay on Downy Brome [12], 70%. Moreover, the inhibition at 1120 g/ha came to 50% with Barnyardgrass [13]; 50% with Annual bluegrass [14]; 70% in the assay on Cocklebur [15]; 70% in the assay with Seedling johnsongrass [16]; 100% with Indian Mustard [17]; 100% in the assay with Wild buckwheat [18]. In addition, the figures for the inhibition at 1120 g/ha in the assay on Morningglory [19] and in the assay with Velvetleaf [20] were 90% and 100%, respectively.
On to `C#CCOCc1cc(-c2nn(C)c(C(F)(F)F)c2Cl)c(F)cc1Cl` [Compound 120], for which the inhibition at 1120 g/ha in the assay with Yellow nutsedge [1] worked out at 10%; in the assay with Downy Brome [2], 70%; in the assay on Barnyardgrass [3] it was 80%; with Annual bluegrass [4], 70%; in the assay on Cocklebur [5], 30%; with Seedling johnsongrass [6], 80%. In addition, the inhibition at 1120 g/ha was found to be 90% with Indian Mustard [7]; 100% in the assay on Wild buckwheat [8]; 80% in the assay with Morningglory [9]; 100% in the assay on Velvetleaf [10]; 10% with Yellow nutsedge [11]; 50% with Downy Brome [12]. Moreover, the inhibition at 1120 g/ha with Barnyardgrass [13] was 80%; with Annual bluegrass [14], 40%; in the assay with Cocklebur [15], 90%; in the assay on Seedling johnsongrass [16] it was 80%; in the assay with Indian Mustard [17] it was 70%; in the assay with Wild buckwheat [18], 100%. Moreover, the inhibition at 1120 g/ha in the assay on Morningglory [19] and in the assay with Velvetleaf [20] was 100% throughout.
Turning to `Cc1cc(-c2c(Cl)c(C(F)F)nn2C)c(F)cc1Cl` [Compound 64], the inhibition at 11210 g/ha worked out at 10% with Yellow nutsedge [1]; 90% with Downy Brome [2]; 80% with Barnyardgrass [3]; 90% with Annual bluegrass [4]; 10% in the assay with Cocklebur [5]; 80% with Seedling johnsongrass [6]. Also, the inhibition at 11210 g/ha is 100% in the assay on Indian Mustard [7]; 100% in the assay with Wild buckwheat [8]; 80% in the assay on Morningglory [9]; 100% with Velvetleaf [10]; 0% in the assay with Yellow nutsedge [11]; 0% in the assay on Downy Brome [12]. Also, the inhibition at 11210 g/ha with Barnyardgrass [13] was 30%; in the assay with Annual bluegrass [14] it was 20%; with Cocklebur [15], 20%; in the assay on Seedling johnsongrass [16], 20%; in the assay with Indian Mustard [17], 20%; with Wild buckwheat [18], 80%. Further, the inhibition at 11210 g/ha in the assay on Morningglory [19] and in the assay with Velvetleaf [20] was 60% each time.
Take `Cn1nc(-c2ccc(Cl)cc2)c(Cl)c1C(F)(F)F` [Compound 82]: the inhibition at 11210 g/ha in the assay on Yellow nutsedge [1] was 30%; in the assay with Downy Brome [2], 100%; with Barnyardgrass [3], 100%; with Annual bluegrass [4], 60%; in the assay on Cocklebur [5], 40%; with Seedling johnsongrass [6] it was 100%. For the same molecule, the inhibition at 11210 g/ha worked out at 80% with Indian Mustard [7]; 100% in the assay with Wild buckwheat [8]; 100% with Morningglory [9]; 100% in the assay on Velvetleaf [10]; 10% with Yellow nutsedge [11]; 20% in the assay on Downy Brome [12]. Besides, the inhibition at 11210 g/ha was 30% with Barnyardgrass [13]; 0% with Annual bluegrass [14]; 0% with Cocklebur [15]; 40% with Seedling johnsongrass [16]; 30% with Indian Mustard [17]; 60% in the assay on Wild buckwheat [18]. Moreover, the values for the inhibition at 11210 g/ha with Morningglory [19] and with Velvetleaf [20] were 90% and 20%, respectively.
For `COc1cc(-c2nn(C)c(C(F)(F)F)c2Cl)c(F)cc1Br` [Compound 94], the inhibition at 1120 g/ha came to 20% with Yellow nutsedge [1]; 100% in the assay on Downy Brome [2]; 100% in the assay on Barnyardgrass [3]; 100% in the assay with Annual bluegrass [4]; 60% in the assay on Cocklebur [5]; 100% with Seedling johnsongrass [6]. The inhibition at 1120 g/ha stood at 100% with Indian Mustard [7]; 100% in the assay with Wild buckwheat [8]; 90% in the assay on Morningglory [9]; 100% with Velvetleaf [10]; 10% in the assay with Yellow nutsedge [11]; 100% with Downy Brome [12]. Besides, the inhibition at 1120 g/ha in the assay with Barnyardgrass [13] is 100%; in the assay with Annual bluegrass [14], 90%; with Cocklebur [15], 80%; in the assay on Seedling johnsongrass [16], 90%; in the assay with Indian Mustard [17], 80%; in the assay on Wild buckwheat [18], 100%. The inhibition at 1120 g/ha was 90% in the assay with Morningglory [19] and 100% in the assay with Velvetleaf [20].
With `C#CCOc1cc(-c2nn(C)c(C(F)(F)F)c2Cl)c(F)cc1Br` [Compound 96], the inhibition at 1120 g/ha worked out at 20% with Yellow nutsedge [1]; 100% in the assay on Downy Brome [2]; 80% with Barnyardgrass [3]; 100% in the assay with Annual bluegrass [4]; 60% in the assay on Cocklebur [5]; 90% in the assay with Seedling johnsongrass [6]. The inhibition at 1120 g/ha in the assay on Indian Mustard [7] stood at 100%; with Wild buckwheat [8], 100%; in the assay with Morningglory [9], 100%; in the assay with Velvetleaf [10], 100%; in the assay on Yellow nutsedge [11], 40%; with Downy Brome [12], 100%. Also, the inhibition at 1120 g/ha came to 100% in the assay with Barnyardgrass [13]; 100% in the assay on Annual bluegrass [14]; 90% in the assay on Cocklebur [15]; 100% in the assay with Seedling johnsongrass [16]; 100% in the assay with Indian Mustard [17]; 100% in the assay with Wild buckwheat [18]. Besides, the inhibition at 1120 g/ha with Morningglory [19] and in the assay on Velvetleaf [20] was 100% each time.
Consider `Cn1nc(C(F)(F)F)c(Cl)c1-c1cc(F)ccc1F` [Compound 69], for which the inhibition at 11210 g/ha in the assay with Yellow nutsedge [1], in the assay on Downy Brome [2], with Barnyardgrass [3], in the assay on Annual bluegrass [4], with Cocklebur [5] and in the assay with Seedling johnsongrass [6] was 0% in each case. Further, the inhibition at 11210 g/ha came to 0% in the assay on Indian Mustard [7]; 0% in the assay on Wild buckwheat [8]; 30% in the assay with Morningglory [9]; 50% in the assay on Velvetleaf [10]; 0% with Yellow nutsedge [11]; 0% in the assay on Downy Brome [12]. Also, the inhibition at 11210 g/ha in the assay with Barnyardgrass [13], in the assay with Annual bluegrass [14], in the assay on Cocklebur [15], in the assay on Seedling johnsongrass [16], in the assay on Indian Mustard [17] and with Wild buckwheat [18] was 0% throughout. Moreover, the inhibition at 11210 g/ha with Morningglory [19] and in the assay with Velvetleaf [20] was 10% each time.

Source of the values: patent US5530126A, “Process for the preparation of substituted 6-(pyrazol-3yl)-1,4-benzoxazin-3-ones” (Monsanto Company, priority 1994, dated 1996).
